Legend:
[1] = biological target: T1, FLAG-tagged Vanin-1 (AA 22-493, T26I) (Homo sapiens, UniProt O95497, T26I); assay: Vanin-1 enzymatic assay; assay type: biochemical; details: 0.1 nM Vanin-1, 3 μM D-pantethine, pantothenic acid formation by RapidFire MS; geometric mean if multiple measurements; read-out: VNN-1 IC50
T1 construct: FLAG-tagged Vanin-1 (AA 22-493, T26I, produced internally); FLAG; made in house
T1 sequence (O95497 22-493 T26I): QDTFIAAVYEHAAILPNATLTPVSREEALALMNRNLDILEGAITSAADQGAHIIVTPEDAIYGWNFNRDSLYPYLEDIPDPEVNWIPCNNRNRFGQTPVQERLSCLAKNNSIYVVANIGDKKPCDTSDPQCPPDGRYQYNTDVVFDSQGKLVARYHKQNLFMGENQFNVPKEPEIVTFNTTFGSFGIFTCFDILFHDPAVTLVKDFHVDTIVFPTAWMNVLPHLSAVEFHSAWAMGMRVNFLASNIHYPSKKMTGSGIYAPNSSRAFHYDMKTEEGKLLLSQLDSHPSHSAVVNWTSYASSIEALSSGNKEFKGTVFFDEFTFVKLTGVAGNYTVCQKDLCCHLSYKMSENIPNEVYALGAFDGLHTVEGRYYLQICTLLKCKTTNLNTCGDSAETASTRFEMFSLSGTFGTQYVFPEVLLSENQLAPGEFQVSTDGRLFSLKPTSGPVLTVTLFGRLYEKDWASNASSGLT
Experimental: The test compounds are dissolved in 100% DMSO at a concentration of 10 mM and in a first step diluted in DMSO to a concentration of 5 mM, followed by serial dilution steps in 100% DMSO. Dilution factor and number of dilution steps may vary according to needs. Typically 8 different concentrations by 1:5 dilutions are prepared, a further intermediate dilutions of the substances is carried out with assay buffer resulting in 1% final DMSO concentration in the assay.
0.1 nM of FLAG-tagged Vanin-1 (AA 22-493, T26I, produced internally) and test compounds are incubated at room temperature for 20 minutes in assay buffer (1 mM DTT, 0.0025% Brij-35, 50 mM HEPES, pH7.5). D-Pantethine (Sigma, Cat #P2125-5G) in assay buffer is added (final concentration 3 μM) and incubated for additional 30 minutes at room temperature. Total assay volume typically is 40 μl but might be adjusted according to needs. Reaction is stopped by adding equal volume of stop solution as the reaction mixture to reach 100 nM HD-pantothenic acid (as an internal standard) and 1% TFA. Assay plates are centrifuged for 2 minutes and the formation of pantothenic acid is detected by RapidFire Mass Spectrometry (mobile phase A: 0.1% formic acid and 0.01% trifluoroacetic acid in water; mobile phase B: 47.5% acetonitrile, 47.5% methanol, 0.1% formic acid and 0.01% trifluoroacetic acid in water) using a C18, 12 μL cartridge (Agilent Cat #G9205A).
The values given in Table I result from measurements of one or more samples. In case of multiple measurements the geometric mean values are given.

Pantetheinase (vanin) = assay: Human Whole Blood assay; assay type: cell-based; details: pantethine substrate, pantothenic acid formation by RapidFire MS, read-out: HWB IC50
Experimental: Human Whole Blood assay: Pantetheinase (vanin) converts panteheine into pantothenic acid and cysteamine. Accordingly, in the described protocol vanin activity is quantified by formation of pantothenic acid after pantetheine supplementation via pantethine. The assay is applicable to identify vanin inhibitors. Compound stocks are dissolved in DMSO at 10 mM. Further dilutions are performed in RPMI 1640 medium (Gibco, #A-10491-01) and final concentrations in the assay are 0.032 nM-500 nM.
Human blood is drawn into a blood bag (1% heparin, 50 I.E./mL). Blood is aliquoted into cavities of 96-deep-well plates at 290 μL and mixed with 10 μL compound solution or vehicle (30 sec at 1400 rpm on a shaker). Equilibration follows at room temperature, 250 rpm and for 30 min. The assay is starts by adding 10 μL of substrate solution (20 μM pantethine in 1 mM DTT, 0.0025% Brij-35, 50 mM HEPES, pH7.5) to each well, except for some blank wells which receive […] substrate buffer (1 mM DTT, 0.0025% Brij-35, 50 mM HEPES, pH7.5) only. Samples are thoroughly shaken (30 sec, 1400 rpm) and reaction is allowed to take place at room temperature, 250 rpm and for 5 min. The reaction is stopped by addition of a vanin tool inhibitor in excess (BI-1 total conc. 10 μM). Centrifugation of the plate follows at 4° C., 665 G for 10 min. Then the blood plasma samples (100 μL) are transferred into another 96-deep-well plate and proteins are precipitated (5 min on ice) by adding 100 μL of ice cold precipitation solution (1 μM labelled pantothenic acid (di-β-alanine-13C6,15N2 calcium salt, Sigma, #705837) in acetonitrile). Afterwards the plate is centrifuged (4° C., 3220 G, 10 min) and supernatants (50 μL) are collected into another 96-deep-well plate and mixed (10 sec, 1400 rpm) with 150 μL ice cold formic acid (0.1%, Carl Roth GmbH+Co.KG, #CP03.1). The formation of pantothenic acid is detected by RapidFire Mass Spectrometry. A TripleQuad 6500+ (ABSciex, Germany) is equipped with an LC-1290 system, a RapidFire autosampler (Agilent, Germany) and a C18 cartridge Type C 12 μL (Agilent Cat #G9526-80000). Mobile phase A is consisting of 0.09% formic acid and 0.01% trifluoroacetic acid in water and mobile phase B of 0.09% formic acid and 0.01% trifluoroacetic acid in acetonitrile/methanol/water=47.5/47.5/5.

Compound	IC50 [1]	IC50 (Pantetheinase (vanin))
CC(=O)N(C)[C@H]1CCN(C(=O)c2ccc(NC(C)c3nccs3)nc2)C1 (single isomer, unassigned) [Example 5.1.A]	90 pM	1820 pM
CC(=O)N(C)[C@H]1CCN(C(=O)c2ccc(NC(C)c3nccs3)nc2)C1 (single isomer, unassigned) [Example 5.1.B]	940 pM	–
CC(=O)N(C)[C@H]1CCN(C(=O)c2ccc(NC(C)c3cccnc3)nc2)C1 (single isomer, unassigned) [Example 6.1.A]	90 pM	2590 pM
CC(=O)N(C)[C@H]1CCN(C(=O)c2ccc(NC(C)c3cccnc3)nc2)C1 (single isomer, unassigned) [Example 6.1.B]	1430 pM	–
CC(=O)N(C)[C@H]1CCN(C(=O)c2ccc(NC3CCc4ncccc43)nc2)C1 (single isomer, unassigned) [Example 8.8]	190 pM	1950 pM
CC(=O)N(C)[C@H]1CCN(C(=O)c2ccc(NC3CCc4ncccc43)nc2)C1 (single isomer, unassigned) [Example 8.14]	8560 pM	76400 pM
CC(=O)N(C)[C@H]1CCN(C(=O)c2ccc(NCc3cccc(C#N)c3)nc2)C1 [Example 1.1, N-[(3S)-1-(6-{[(3-Cyanophenyl)methyl]amino}pyridine-3-carbonyl)pyrrolidin-3-yl]-N-methylacetamide]	1270 pM	5040 pM
CC(=O)N(C)[C@H]1CCN(C(=O)c2ccc(N[C@@H](C)c3ccccc3)nc2)C1 [Example 1.2]	200 pM	4510 pM
CC(=O)N(C)[C@H]1CCN(C(=O)c2ccc(NCc3cccc(Cl)c3)nc2)C1 [Example 1.3]	1020 pM	1030 pM
CC(=O)N(C)[C@H]1CCN(C(=O)c2ccc(NCc3ccccc3Cl)nc2)C1 [Example 1.4]	480 pM	4850 pM
Cc1ccncc1CNc1ccc(C(=O)N2CC[C@H](N(C)C(=O)C3CC3)C2)cn1 [Example 1.5]	70 pM	1590 pM
CC(=O)N(C)[C@H]1CCN(C(=O)c2ccc(NCc3ccccc3)nc2)C1 [Example 1.6]	810 pM	2340 pM
CN(C(=O)C1(C)CCC1)[C@H]1CCN(C(=O)c2ccc(NCc3cccnc3Cl)nc2)C1 [Example 1.7]	120 pM	–
CN(C(=O)C1CC1)[C@H]1CCN(C(=O)c2ccc(NCc3ccc(Cl)nc3)nc2)C1 [Example 1.13]	170 pM	–
CNC(=O)c1cccc([C@H](C)Nc2ccc(C(=O)N3CC[C@H](N(C)C(C)=O)C3)cn2)c1 [Example 1.25]	270 pM	–
CN(C(=O)C1(C)CCC1)[C@H]1CCN(C(=O)c2ccc(NCc3ccc(Cl)nc3)nc2)C1 [Example 1.28]	320 pM	–
COC(=O)c1cccc(C(C)Nc2ccc(C(=O)N3CC[C@H](N(C)C(C)=O)C3)cn2)c1 (stereo partly drawn) [Example 1.29]	340 pM	–
CC(=O)N(C)[C@H]1CCN(C(=O)c2ccc(NCc3ccc(N)nc3)nc2)C1 [Example 1.34]	470 pM	–
CC(=O)N(C)[C@H]1CCN(C(=O)c2ccc(NC3CCc4[nH]ncc43)nc2)C1 (stereo partly drawn) [Example 1.35]	530 pM	–
CC(=O)Nc1cccc(C(C)Nc2ccc(C(=O)N3CC[C@H](N(C)C(C)=O)C3)cn2)c1 (stereo partly drawn) [Example 1.36]	540 pM	–
CN(C(=O)C1(C)CCC1)[C@H]1CCN(C(=O)c2ccc(NCc3cnccc3C(F)(F)F)nc2)C1 [Example 1.39]	660 pM	–

Compound	IC50 [1]	IC50 (Pantetheinase (vanin))
CC(=O)N(C)[C@H]1CCN(C(=O)c2ccc(NCc3cncc(Br)c3)nc2)C1 [Example 1.41]	770 pM	–
CC(=O)N(C)[C@H]1CCN(C(=O)c2ccc(N[C@@H](C)c3cccc(S(=O)(=O)N(C)C)c3)nc2)C1 [Example 1.45]	940 pM	–
CN(C)c1ccc(CNc2ccc(C(=O)N3CC[C@H](N(C)C(=O)C4(C)CCC4)C3)cn2)cn1 [Example 1.46]	960 pM	–
CC(=O)N(C)[C@H]1CCN(C(=O)c2ccc(NCc3cccc(-c4nc(CC(F)(F)F)no4)c3)nc2)C1 [Example 1.48]	980 pM	–
CC(=O)N(C)[C@H]1CCN(C(=O)c2ccc(NCc3cccnn3)nc2)C1 [Example 1.49]	1040 pM	–
CC(=O)N(C)[C@H]1CCN(C(=O)c2ccc(NCc3ccccn3)nc2)C1 [Example 1.56]	1650 pM	–
CC[C@H](Nc1ccc(C(=O)N2CC[C@H](N(C)C(C)=O)C2)cn1)c1ccc(C(F)F)cc1 [Example 1.62]	2360 pM	–
C[C@H](Nc1ccc(C(=O)N2CC[C@H](N(C)C(=O)C3(C)CCC3)C2)cn1)c1cnccn1 [Example 1.76]	4330 pM	–
CC(=O)N(C)[C@H]1CCN(C(=O)c2ccc(NC3CCCc4cn[nH]c43)nc2)C1 (stereo partly drawn) [Example 1.81]	6990 pM	–
CC(=O)N(C)[C@H]1CCN(C(=O)c2ccc(NCc3ccncc3)nc2)C1 [Example 1.87]	8450 pM	–
CC(=O)N(C)[C@H]1CCN(C(=O)c2ccc(NCc3cc(CC(C)C)n[nH]3)nc2)C1 [Example 1.88]	8830 pM	–
CC(=O)N(C)[C@H]1CCN(C(=O)c2ccc(NCc3ccnn3C)nc2)C1 [Example 1.90]	9370 pM	–
CN(C(=O)C1CC(F)(F)C1)[C@H]1CCN(C(=O)c2ccc(NC(C)(C)c3ccccc3)nc2)C1 [Example 2.3]	90 pM	–
CC(=O)N(C)[C@H]1CCN(C(=O)c2ccc(NC3(c4ccccc4)CCC3)nc2)C1 [Example 4.6]	210 pM	–
CN(C(=O)C1(C)CCC1)[C@H]1CCN(C(=O)c2ccc(NC(C)(C)c3cccnc3)nc2)C1 [Example 8.1, N,1-Dimethyl-N-[(3S)-1-(6-{[2-(pyridin-3-yl)propan-2-yl]amino}pyridine-3-carbonyl)pyrrolidin-3-yl]cyclobutane-1-carboxamide]	110 pM	–
O=C(N[C@H]1CCN(C(=O)c2ccc(NC3(c4cncnc4)CC3)nc2)C1)C1CC1 [Example 8.13]	4280 pM	–
CC(=O)N(C)[C@H]1CCN(C(=O)c2ccc(NC3(c4ccc(Cl)cc4)CCC3)nc2)C1 [Example 9.2]	150 pM	–
CC(=O)N(C)[C@H]1CCN(C(=O)c2ccc(NC(C)c3ccccc3)nc2)C1 (stereo partly drawn) [Example 9.7]	720 pM	–
CC(=O)N(C)[C@H]1CCN(C(=O)c2ccc(NC(C)c3cccc(C(N)=O)c3)nc2)C1 (stereo partly drawn) [Example 10.1, 3-[1-({5-[(3S)-3-(N-Methylacetamido)pyrrolidine-1-carbonyl]pyridin-2-yl}amino)ethyl]benzamide]	350 pM	–
CC(=O)N(C)[C@H]1CCN(C(=O)c2ccc(N[C@@H](C)c3ccc(C#N)nc3)nc2)C1 [Example 11.1, N-[(3S)-1-(6-{[(1S)-1-(6-cyanopyridin-3-yl)ethyl]amino}pyridine-3-carbonyl)pyrrolidin-3-yl]-N-methylacetamide]	740 pM	–

Reference: US12240828B2, “Heteroaromatic compounds as vanin inhibitors” (Boehringer Ingelheim International GmbH, priority 2018, dated 2025)
